In article PMC10746753 (Pharmaceutical Research, 2023):

System: Caki-1 xenografts
Assay: Anti-tumor efficacy study EFF-02
Assay type: in vivo, CD1 nu/nu mice
Details: p.o., 6–7 weeks
Procedure: For all in vivo studies, human Caki-1 renal tumor cells (ATCC: HTB-46, RRID: CVCL_0234; 5 million in 100 µL PBS w/o Ca/Mg, Matrigel [1:1]) were subcutaneously inoculated into the right flank of female 5–6-week-old CD-1 nude mice provided by Charles River Laboratories (CRL), Sulzfeld, Germany. Tumor growth was observed over time by measuring tumor length (L) and width (W) twice weekly using calipers. Tumor volume was calculated using the formula LxW^2/2. Data were collected in Study Advantage™ (data collection system).
Anti-tumor efficacy study. […] PD analysis was not performed in this study.

## O=C(NCc1cc(F)cc(F)c1)[C@@]1(O)CCN(c2ccc3[nH]ccc3c2)C1=O [M8891]
  minimal efficacious dose: 25 mg/kg BID
